Laboratory results reported in US20220227796A1, “EGFR INHIBITORS, COMPOSITIONS AND METHODS THERE OF” (Betta Pharmaceuticals Co., Ltd., priority 2019, published 2022).
Read-outs that look alike come from different tables or passages of the source.

Columns and labels:
Assay type in all cases: cell-based
H1975(L858R/T790M) = assay: H1975 cells proliferation assay; conditions: for IC50: Homo sapiens, NCI-H1975, cell proliferation, 72 h, CellTiter Glo, numeric values, read-out: H1975 IC50; for inhibition of double mutant (L858R/T790M): summary in words of Table 2
Outline: (§1)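 HCC827 (2500 cells/well) and H1975 (2000 cells/well) cells seeded in 96-well plates and exposed to compounds for 72 h at 37° C, 5% CO2; 0.5% DMSO medium as blank. Viability by CellTiter-Glo luminescence; IC50 from four-parameter logistic fit.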

HCC827(Δ19del) = assay: HCC827 cells proliferation assay; conditions: Homo sapiens, HCC827; cell proliferation, 72 h, CellTiter Glo; numeric values; read-out: HCC827 IC50
Outline: as §1

Ba/F3-Δ19del/T790M/C797S = Ba/F3-Δ19del/T790M/C797S (Homo sapiens, UniProt P00533, T790M/C797S, cells depend on it, form not given); assay: Ba/F3-Δ19del/T790M/C797S cells proliferation assay; conditions: cell proliferation, 72 h, CellTiter Glo, read-out: BaF3 Δ 19del/T790M/C797S IC50
Chain of Ba/F3-Δ19del/T790M/C797S (P00533 with tags, fused parts or gaps DEL746-750/T790M/C797S, form open): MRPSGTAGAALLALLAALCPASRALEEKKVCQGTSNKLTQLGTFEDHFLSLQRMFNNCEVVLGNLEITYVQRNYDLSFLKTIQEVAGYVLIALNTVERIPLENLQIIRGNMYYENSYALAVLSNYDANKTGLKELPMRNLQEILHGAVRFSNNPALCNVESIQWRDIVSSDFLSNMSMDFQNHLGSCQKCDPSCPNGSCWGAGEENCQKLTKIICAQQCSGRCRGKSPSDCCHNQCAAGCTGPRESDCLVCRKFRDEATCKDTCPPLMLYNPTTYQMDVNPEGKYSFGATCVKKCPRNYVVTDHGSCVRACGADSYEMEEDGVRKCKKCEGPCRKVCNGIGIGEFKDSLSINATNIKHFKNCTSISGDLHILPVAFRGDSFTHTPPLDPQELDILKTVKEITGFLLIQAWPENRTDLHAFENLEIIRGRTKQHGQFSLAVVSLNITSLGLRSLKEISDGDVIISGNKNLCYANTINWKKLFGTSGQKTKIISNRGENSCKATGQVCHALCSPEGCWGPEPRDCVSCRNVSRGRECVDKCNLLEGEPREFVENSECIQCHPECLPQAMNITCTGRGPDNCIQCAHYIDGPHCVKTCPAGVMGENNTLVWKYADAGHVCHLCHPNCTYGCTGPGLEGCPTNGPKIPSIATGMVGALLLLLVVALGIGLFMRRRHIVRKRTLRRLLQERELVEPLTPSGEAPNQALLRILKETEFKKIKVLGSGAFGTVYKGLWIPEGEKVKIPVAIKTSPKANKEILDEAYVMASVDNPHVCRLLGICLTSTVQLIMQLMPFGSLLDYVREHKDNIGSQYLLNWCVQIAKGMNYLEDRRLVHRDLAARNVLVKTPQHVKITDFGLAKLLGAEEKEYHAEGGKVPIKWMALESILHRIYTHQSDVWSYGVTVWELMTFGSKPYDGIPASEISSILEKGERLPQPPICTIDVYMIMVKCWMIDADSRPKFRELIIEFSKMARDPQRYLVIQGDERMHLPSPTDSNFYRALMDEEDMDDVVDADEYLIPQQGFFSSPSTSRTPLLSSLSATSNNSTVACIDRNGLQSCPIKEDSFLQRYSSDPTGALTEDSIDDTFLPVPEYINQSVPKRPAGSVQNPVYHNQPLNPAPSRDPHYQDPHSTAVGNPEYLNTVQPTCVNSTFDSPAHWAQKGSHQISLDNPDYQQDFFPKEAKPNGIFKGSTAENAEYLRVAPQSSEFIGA
Method: (§2) a) The medium was preheated in a 37 water bath in advance.
(§3) b) Remove the cryogenic vials from the liquid nitrogen tank, quickly put it into a 37° C. water bath, and completely melt it in 1 min.
(§4) c) Transfer the cell suspension to a 15 mL centrifuge tube containing 8 mL medium, centrifuge 1000 rpm, 5 min,
(§5) d) Discard the supernatant, resuspend the cells in 1 mL medium, and transfer to a 75 cm^2 flask containing 15 mL medium, culture the cells in an incubator at 37° C., 5% CO2.
(§6) a) The medium was preheated in a 37° C.; water bath in advance.
(§7) b) Collect cell to a 15 mL centrifuged tube, centrifuge at 1000 rpm for 5 min. Discard the supernatant, count, and make the cell density at 1×10^4 cells/mL, then place it in a 37° C., 5% CO2 incubator.
(§8) b) The above compound solution was diluted 1:20 times with culture medium to prepare a 10 fold working solution;
(§9) a) Take cells in log phase growth, centrifuge at 1000 rpm for 5 min, then resuspend the cells with culture medium, then count cells;
(§10) b) Cells were seeded to 96-well cell culture plate with density at 2000 cells/well;
(§11) The blank control well was a culture medium (0.5% DMSO);
(§12) b) The cells were incubated for an additional 72 h in the incubator.
(§13) a) Remove the 96-well cell culture plate and add 50 μl of CTG reagent (CellTiter Glo kit, promega, Cat #G7573).
(§14) b) Plate was shaked for 2 min and then let it cool for 10 min at room temperature.
(§15) c) The Luminescence signal value was read using a PerkinElmer reader.
(§16) Experimental Data Analysis
(§17) Data were analyzed using GraphPad Prism 6.0 software to obtain a fitted curve of compound activity.
(§18) Y=Bottom+(Top−Bottom)/(1+10^((Log IC50−X)*Hill Slope));
(§19) The cells proliferation assay results are expressed with IC50, shown as Table 2.

Ba/F3-L858R/T790M/C797S [1] = target: T1, Ba/F3-L858R/T790M/C797S (Homo sapiens, UniProt P00533, T790M/C797S, cells depend on it, form not given); assay: Ba/F3-L858R/T790M/C797S cells proliferation assay; conditions: summary in words of Table 2; covers both Ba/F3 triple mutant lines
T1 construct: covers both
T1 sequence (P00533 whole entry T790M/C797S/L858R, form open): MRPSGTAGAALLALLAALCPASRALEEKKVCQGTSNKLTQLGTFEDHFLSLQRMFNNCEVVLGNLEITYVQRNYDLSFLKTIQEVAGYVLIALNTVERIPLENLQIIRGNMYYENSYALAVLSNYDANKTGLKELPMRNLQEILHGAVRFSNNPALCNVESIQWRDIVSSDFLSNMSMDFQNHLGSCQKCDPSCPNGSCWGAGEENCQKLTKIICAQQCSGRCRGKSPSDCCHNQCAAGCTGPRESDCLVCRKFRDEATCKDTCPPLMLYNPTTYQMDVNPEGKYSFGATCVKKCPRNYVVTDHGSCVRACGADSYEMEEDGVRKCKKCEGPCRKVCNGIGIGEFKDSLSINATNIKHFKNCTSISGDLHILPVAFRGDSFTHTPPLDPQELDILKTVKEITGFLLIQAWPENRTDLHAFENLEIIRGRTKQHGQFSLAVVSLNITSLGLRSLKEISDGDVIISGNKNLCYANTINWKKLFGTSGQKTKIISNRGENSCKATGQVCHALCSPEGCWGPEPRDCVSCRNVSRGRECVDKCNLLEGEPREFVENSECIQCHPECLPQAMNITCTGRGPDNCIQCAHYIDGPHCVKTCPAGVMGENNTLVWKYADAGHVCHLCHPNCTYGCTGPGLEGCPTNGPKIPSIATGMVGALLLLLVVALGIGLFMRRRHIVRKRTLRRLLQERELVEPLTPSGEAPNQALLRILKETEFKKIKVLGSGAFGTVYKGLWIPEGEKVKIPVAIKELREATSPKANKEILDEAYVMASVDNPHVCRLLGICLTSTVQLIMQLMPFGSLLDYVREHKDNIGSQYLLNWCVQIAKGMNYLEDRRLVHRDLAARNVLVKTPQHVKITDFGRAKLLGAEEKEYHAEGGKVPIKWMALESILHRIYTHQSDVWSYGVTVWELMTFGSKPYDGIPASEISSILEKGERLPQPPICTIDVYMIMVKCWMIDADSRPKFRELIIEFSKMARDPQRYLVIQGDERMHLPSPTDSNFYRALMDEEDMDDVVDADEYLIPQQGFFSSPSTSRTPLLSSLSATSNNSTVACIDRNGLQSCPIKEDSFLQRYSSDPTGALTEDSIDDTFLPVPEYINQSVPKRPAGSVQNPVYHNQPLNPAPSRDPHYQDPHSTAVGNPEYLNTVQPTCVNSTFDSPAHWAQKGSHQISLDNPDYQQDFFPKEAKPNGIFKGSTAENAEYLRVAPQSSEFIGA
Method: as §2, §3, §4, §5, §6, §7, §8, §9, §10, §11, §12, §13, §14, §15, §16, §17, §18, §19

Ba/F3-L858R/T790M/C797S [2] = target: T2, Ba/F3-L858R/T790M/C797S (Homo sapiens, UniProt P00533, T790M/C797S/L858R, cells depend on it); assay: Ba/F3-L858R/T790M/C797S cells proliferation assay; conditions: cell proliferation, 72 h, CellTiter Glo, read-out: BaF3 L858R/T790M/C797S IC50
T2 construct: BaF3 L858R/T790M/C797S IC50; other: cell proliferation, 72 h, CellTiter Glo; class symbols; numeric values
T2 sequence (P00533 whole entry T790M/C797S/L858R): as the sequence (P00533 whole entry T790M/C797S/L858R, form open) above
Method: as §2, §3, §4, §5, §6, §7, §8, §9, §10, §11, §12, §13, §14, §15, §16, §17, §18, §19

Row | IC50 (H1975(L858R/T790M)) [nM] | IC50 (HCC827(Δ19del)) [nM] | GI50 (Ba/F3-Δ19del/T790M/C797S; class symbols) [nM] | inhibition of triple mutant (L858R/T790M/C797S or Δ19del/T790M/C797S) (Ba/F3-L858R/T790M/C797S [1]) | GI50 (Ba/F3-L858R/T790M/C797S [2]; class symbols) [nM] | GI50 (Ba/F3-Δ19del/T790M/C797S; numeric values) [nM] | GI50 (Ba/F3-L858R/T790M/C797S [2]; numeric values) [nM] | SMILES | inhibition of double mutant (L858R/T790M) (H1975(L858R/T790M))
1 | 61.7 | 89.5 | < 10 | higher inhibition | < 10 |  |  | CCN1CC2(C1)CN(c1ccc(Nc3ncc(Cl)c(Nc4ccccc4P(C)(C)=O)n3)cc1C)C2 [Comparative compound A, (2-((5-chloro-2-((4-(6-ethyl-2,6-diazaspiro[3.3]heptan-2-yl)-3-methylphenyl)amino)pyrimidin-4-yl)amino)phenyl)dimethylphosphine oxide, reference compound] | relatively low inhibition
2 | 71.4 |  |  | higher inhibition |  | 9.6 | 16.8 | COc1cc(N2CCC(N3CCN(C)CC3)CC2)c(C)cc1Nc1ncc(Br)c(Nc2ccc3nccnc3c2P(C)(C)=O)n1 [Comparative compound C, (6-((5-bromo-2-((2-methoxy-5-methyl-4-(4-(4-methylpiperazin-1-yl)piperidin-1-yl)phenyl)amino)pyrimidin-4-yl)amino)quinoxalin-5-yl)dimethylphosphine oxide, reference compound] | relatively low inhibition
3 | 83.6 |  |  | higher inhibition |  | 5.7 | 12.9 | CCc1cc(Nc2ncc(Br)c(Nc3ccc4nccnc4c3P(C)(C)=O)n2)c(OC)cc1N1CCC(N2CCN(C)CC2)CC1 [Comparative compound D, (6-((5-bromo-2-((5-ethyl-2-methoxy-4-(4-(4-methylpiperazin-1-yl)piperidin-1-yl)phenyl)amino)pyrimidin-4-yl)amino)quinoxalin-5-yl)dimethylphosphine oxide, reference compound] | relatively low inhibition
